# Literature values, collected in US20140228218A1, “PARAFFINIC OIL AND CLASS B GIBBERELLIN BIOSYNTHESIS INHIBITOR COMPOSITIONS” (SUNCOR ENERGY INC., priority 2011, published 2014).
# Tested on: the plant being treated
# Conditions: in vivo
structure (smiles),measurement,value
"CC(C)(C)[C@@H](O)[C@@H](Cc1ccc(Cl)cc1)n1cncn1 (relative stereo) [paclobutrazol, (±)-(R*,R*)-beta-[(4-chlorophenyl)methyl]-alpha-(1,1-dimethylethyl)-1H-1,2,4-triazole-1-ethanol]",phytotoxicity to the plant being treated (in words),can cause phytoxicity
